Laboratory results as given in patent publication US9108958B2, “Selective CCR2 antagonists” (Boehringer Ingelheim International GmbH, priority 2011, dated 2015).

How the values were obtained:
[1] = target: T1, human CCR5 (Homo sapiens, UniProt P51681); assay: CCR5 receptor membrane binding assay ([125I]RANTES, CHO (Gα16) human CCR5 cell membranes, SPA beads); settings: bound radioactivity after 6 h, read-out: hKi [nM] (CCR5)
T1 construct: expressed in transfected cells; host or cells: CHO cells co-expressing Gα16, under puromycin and zeocin selection; membrane preparation
T1 sequence (P51681 whole entry): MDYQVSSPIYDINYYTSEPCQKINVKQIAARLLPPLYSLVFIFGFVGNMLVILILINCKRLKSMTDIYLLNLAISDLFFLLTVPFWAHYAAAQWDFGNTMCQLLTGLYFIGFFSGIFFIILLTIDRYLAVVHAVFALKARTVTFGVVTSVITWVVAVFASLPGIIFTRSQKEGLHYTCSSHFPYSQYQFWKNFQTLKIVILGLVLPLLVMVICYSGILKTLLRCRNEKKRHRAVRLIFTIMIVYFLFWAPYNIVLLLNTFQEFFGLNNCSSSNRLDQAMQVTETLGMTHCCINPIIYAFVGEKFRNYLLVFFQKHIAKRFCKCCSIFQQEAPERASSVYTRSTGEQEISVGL
Protocol: The above exemplary substances have been tested for binding to CCR5 using a binding assay as outlined herein below:
CHO, (Gα16) human CCR5 cells were cultured under standardized conditions at 37° C. and 5% CO2 in a humidified incubator. CHO (Gα16) human CCR5 cells were cultivated in Ham's F12 (Invitrogen; #31765068) supplemented with 10 μg/ml Puromycin (Invitrogen; #A11139-03), 200 μg/ml Zeocin (Invitrogen; #45-0003) and 10% FCS (Gibco; #10500-064).
Membranes were prepared from CHO (Gα16) human CCR5 cells. Cells were cultured on […] plates (Nunc; #166508) 2-3 days before membrane preparation (usually 80-100 plates to obtain 80 mg protein).
Cells were scraped off the plates with a big scraper and washed with 2×5 ml ice cold Phosphate Buffer Saline (PBS; Invitrogen; #14040-174). Cell suspension was collected in a glass bottle (on ice). Cell suspension was harvested at 1400 rpm and 4° C. for 10 min and washed in PBS. Cell pellet was resuspended in 40 ml PBS with protease inhibitor mix ‘complete’ (Roche; #11873580001; 1 tablet/50 ml).
For gentle cell disruption the membrane preparation was performed by using a homogenizer (potter). Cells were homogenized for 5-10 min.
Membranes were centrifuged at 1000 rpm and 4° C. for 5 min Supernatant (=membrane) was harvested in a new falcon tube and remaining cell pellet homogenized again for 5-10 min with PBS with protease inhibitor mix and centrifuged. Collected supernatant was centrifuged at 40000 rpm and 4° C. for 30 min to sediment the cell membranes.
The membranes were resuspended in 25 mM HEPES, 25 mM MgCl2, 1 mM CaCl2, 10% Glycerine for storage in aliquots at −80° C. Membranes were diluted to a concentration of 5 mg/ml (Bradford Assay).
(§1) Receptor Membrane Binding Assay:
[^125I]RANTES, Stock: 1825 Ci/mmol, 25 μCi (Bio Trend #A3-AI-676) was solved in 1000 μl assay buffer (100 mM NaCl; 10 mM MgCl2; 50 mM Tris-HCl; 1 mM EDTA; 0.1% BSA, pH 7.6), stored at −20° C.
CHO (Gα16) human CCR5 membrane were solved on ice and adjusted with assay buffer to a concentration of 2.5 μg/15 μl.
Amersham Biosciences PVT-WGA Beads (GE Healthcare; #RPNQ0001) were adjusted with assay buffer to a concentration of 8 mg/ml. For preparation of the membrane-bead-suspension, membranes and beads were incubated for 30 min at RT under rotation with a ratio of 1:2.
Test compounds dissolved in 100% DMSO to a concentration of 10 mM and are further diluted with 100% DMSO to 1 mM. All additional compound dilutions were obtained with assay buffer, final 1% DMSO. 7 μl compound dilution, 45 μl membrane-bead-suspension and 10 μl [^125I]RANTES (ca. 20000 cpm/10 μl) were incubated at RT. Bound radioactivity was determined by scintillation counter after 6 h. Determination of affinity of test compounds (dissociation constant Ki) is calculated by iterative fitting of experimental data using the “easy sys” program, which is based on law of mass action (Schittkowski K. (1994), Numerische Mathematik, Vol. 68, 129-142).

[2] = target: T2, CCR2 (Homo sapiens, UniProt P41597); assay: CCR2 receptor membrane binding assay ([125I]MCP-1, THP-1 cell membranes, SPA beads); settings: THP-1 membranes, [125I]MCP-1, bound radioactivity after 8 h; read-out: hKi [nM](CCR2)
T2 construct: Membranes were prepared from THP-1 cells; endogenous in cells; host or cells: THP-1 (human acute monocytic leukaemia cells), membrane preparation
T2 sequence (P41597 1-360 isoform P41597-2): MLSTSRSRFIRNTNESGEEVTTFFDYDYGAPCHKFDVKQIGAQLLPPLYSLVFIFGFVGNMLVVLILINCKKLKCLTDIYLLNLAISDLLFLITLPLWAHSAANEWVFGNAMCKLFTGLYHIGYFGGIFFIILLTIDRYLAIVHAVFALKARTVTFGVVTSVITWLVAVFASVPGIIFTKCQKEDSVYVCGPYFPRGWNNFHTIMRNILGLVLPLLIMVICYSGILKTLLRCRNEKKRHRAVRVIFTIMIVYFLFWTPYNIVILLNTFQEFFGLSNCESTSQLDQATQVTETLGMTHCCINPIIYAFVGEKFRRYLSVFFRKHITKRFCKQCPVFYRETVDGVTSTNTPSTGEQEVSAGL
Protocol: The above exemplary substances have been tested for binding to CCR2 using a binding assay as outlined herein below:
THP-1 cells (human acute monocytic leukaemia cells) were cultured under standardized conditions at 37° C. and 5% CO2 in a humidified incubator. THP-1 cells were cultivated in RPMI 1640 medium (Gibco 21875) containing 1% MEM-NEAA (Gibso 11140) 2 mM L-glutamine, 1.5 g/L sodium bicarbonate, 4.5 g/L glucose, 10 mM HEPES and 1.0 mM sodium pyruvate, 90%; 10% fetal calf serum (FCS Gibco 10500-064).
Membranes were prepared from THP-1 cells. THP-1 cells were centrifuged at 300×g at 4° C. for 10 min. The cell pellet was resuspendet in Phosphate Buffer Saline (PBS, including 10 μM Pefabloc and a protease inhibitor mix ‘complete’, Boehringer Mannheim (1 tablet/50 ml)), to a concentration of […]. The membrane preparation was performed by disrupting the cells by nitrogen […] (at 50 bar, for 1 h) in a “Nitrogen Bombe” (Parr Instrument). Cell debris was removed by centrifugation (800×g at 4° C., 1 min) The supernatant was centrifuged at 80000×g, 4° C. for 30 min to sediment the cell membranes. Usually 50 mg of protein (Bradford assay) were yielded from 1×10E9 cells. The membranes were resuspendet in 25 mM HEPES, 25 mM MgCl2, 1 mM CaCl2, 10% Glycerine for storage in aliquots at −80° C. in 25 mM HEPES, 25 mM MgCl2, 1 mM CaCl2, 10% Glycerine and stored at −80° C.
as §1
Perkin Elmer NEX 332 Jod^125 MCP-1, Stock: 2200 Ci/mmol solved in 2000 μl assay buffer, stored at −20° C. THP-1 membrane were adjusted with 25 mM HEPES, pH 7.2; 5 mM MgCl2; 0.5 mM CaCl2; 0.2% BSA assay buffer to a concentration of 2.5 μg/15 μl. Amersham Biosciences PVT-WGA Beads (RPNQ0001) were adjusted with assay buffer to a concentration of 0.24 mg/30 μl. For preparation of the membrane-bead-suspension membranes and beads were incubated for 30 min at RT under rotation (60 rpm) with a ratio of 1:2. Test compounds dissolved in 100% DMSO to a concentration of 10 mM and are further diluted with 100% DMSO to 1 mM. All additional compound dilutions were obtained with assay buffer, final 1% DMSO. Compounds, membrane-bead-suspension and [^125I]MCP-1 (ca. 25000 cpm/10 μl) were incubated. Bound radioactivity was determined by scintillation counter after 8 h. Determination of affinity of test compounds (dissociation constant hKi) is calculated by iterative fitting of experimental data using the “easy sys” program, which is based on law of mass action (Schittkowski K. (1994), Numerische Mathematik, Vol. 68, 129-142).

Row | Compound | Ki [1] [nM] | Ki [2] [nM]
1 | Cc1c(C(=O)N2CCC(N[C@@H]3CCOC[C@@H]3F)CC2)nc(C2CCOCC2)nc1N1CCc2ccc(C(F)(F)F)cc2C1 [Example 14] | 2090 | 3
2 | Cc1c(NC[C@H]2CCC[C@@H](c3ccc(C(F)(F)F)cc3)O2)nc(C2CCOCC2)nc1C(=O)N1CCC(N[C@@H]2CCOC[C@@H]2F)CC1 [Example 15] | 270 | 3
3 | Cc1c(NC[C@H]2CCC[C@@H](c3ccc(C(F)(F)F)cc3)O2)nc(C2CCOCC2)nc1C(=O)N1CCC(N[C@H]2CCOC[C@H]2F)CC1 [Example 16] | 210 | 1
4 | CO[C@@H]1COCC[C@@H]1NC1CCN(C(=O)c2nc(CF)nc(N3CCc4ccc(C(F)(F)F)cc4C3)c2C)CC1 [Example 17] | 180 | 2
5 | CO[C@H]1COCC[C@H]1NC1CCN(C(=O)c2nc(CF)nc(N3CCc4ccc(C(F)(F)F)cc4C3)c2C)CC1 [Example 18] | 460 | 5
6 | Cc1c(Nc2ccc(Cl)c(Cl)c2)nc(CF)nc1C(=O)N1CCC(NC2CCOCC2F)CC1 (stereo not shown) [Example 19] | 350 | 3
7 | CO[C@@H]1COCC[C@@H]1NC1CCN(C(=O)c2nc(CF)nc(Nc3ccc(Cl)c(Cl)c3)c2C)CC1 [Example 20] | 31 | 0.6
8 | CO[C@H]1COCC[C@H]1NC1CCN(C(=O)c2nc(CF)nc(Nc3ccc(Cl)c(Cl)c3)c2C)CC1 [Example 21] | 75 | 2
9 | Cc1cc(-c2nc(NC[C@H]3CCC[C@@H](c4ccc(C(F)(F)F)cc4)O3)c(C)c(C(=O)N3CCC(N[C@@H]4CCOC[C@@H]4F)CC3)n2)no1 [Example 24] | 50 | 1

More lines, now with the values ahead:

Row | Ki [1] [nM] | Ki [2] [nM] | Compound
10 | 130 | 5 | CO[C@H]1COCC[C@H]1NC1CCN(C(=O)c2nc(-c3cc(C)on3)nc(N3CCc4ccc(C(F)(F)F)cc4C3)c2C)CC1 [Example 26]
11 | 750 | 15 | Cc1cc(-c2nc(C(=O)N3CCC(N[C@H]4CCOC[C@H]4F)CC3)c(C)c(N3CCc4ccc(C(F)(F)F)cc4C3)n2)no1 [Example 27]
12 | 1350 | 11 | Cc1cc(-c2nc(C(=O)N3CCC(N[C@@H]4CCOC[C@@H]4F)CC3)c(C)c(N3CCc4ccc(C(F)(F)F)cc4C3)n2)no1 [Example 28]
13 | 53 | 2 | CO[C@@H]1COCC[C@@H]1NC1CCN(C(=O)c2nc(-c3cc(C)on3)nc(N3CCc4ccc(C(F)(F)F)cc4C3)c2C)CC1 [Example 29]
14 | 190 | 4 | CO[C@H]1COCC[C@H]1NC1CCN(C(=O)c2nc(C(F)F)nc(N3CCc4ccc(C(F)(F)F)cc4C3)c2C)CC1 [Example 34]
15 | 160 | 2 | CO[C@@H]1COCC[C@@H]1NC1CCN(C(=O)c2nc(C(F)F)nc(N3CCc4ccc(C(F)(F)F)cc4C3)c2C)CC1 [Example 35]
16 | 1370 | 8 | Cc1c(Nc2ccc(Cl)c(Cl)c2)nc(CF)nc1C(=O)N1CCC(N[C@@H]2CCOC[C@@H]2F)CC1 [Example 37]
17 | 230 | 7 | CSc1ccc([C@@H]2CCC[C@H](CNc3cc(C(=O)N4CCC(NC5CCOCC5F)CC4)nc(CF)n3)O2)cc1 (stereo partly shown) [Example 40]
